Results on 18 compounds are retold here after US10624912B2, “Spirocyclic Pyridotriazine Derivatives useful as HIV integrase inhibitors” (priority 2015, dated 2020).

In this assay the test system is HIV-1. The assay can be described thus: HIV-1 infection assay (antiviral potency, MT4-GFP reporter cells). In kind it is cell-based. The protocol: HIV-1 replication was monitored using MT4-gag-GFP clone D3 (hereafter designate MT4-GFP), which are MT-4 cells modified to harbor a GFP reporter gene, the expression of which is dependent on the HIV-1 expressed proteins tat and rev. Productive infection of an MT4-GFP cell with HIV-1 results in GFP expression approximately 24 h post-infection.
MT4-GFP cells were maintained at 37° C./5% CO2/90% relative humidity in RPMI 1640 supplemented with 10% fetal bovine serum, 100 U/ml penicillin/streptomycin, and 400 μg/ml G418 to maintain the reporter gene. For infections, MT4-GFP cells were placed in the same medium lacking G418 and infected overnight with H9IIIB or NL4-3 virus at an approximate multiplicity of infection of 0.01 in the same incubation conditions. Cells were then washed and resuspended in either RPMI 1640 containing no serum at 1.6×10^5 cells/mL (serum free conditions), 10% normal human serum at 1.6×10^5 cells/mL (10% NHS conditions) or in 100% normal human serum at 2×10^5 cells/mL (100% NHS conditions). Compound plates were prepared by dispensing compounds taken up in DMSO into wells of 384 well poly D lysine-coated plates (0.2 μl/well) using an ECHO acoustic dispenser. Each compound was tested in a 10 point serial 3-fold dilution (typical final concentrations: 4.2 μM-0.21 nM). Controls included no inhibitor (DMSO only) and a combination of three antiviral agents (efavirenz, indinavir, and the integrase strand transfer inhibitor L-002254051 at final concentrations of 4 μM each). Cells were added (50 μL/well) to compound plates and the infected cells were maintained at 37° C./5% CO2/90% relative humidity.
Infected cells were quantified at two time points, ˜48 h and ˜72 h post-infection, by counting the number of green cells in each well using an Acumen eX3 scanner. The increase in the number of green cells over ˜24 h period gives the reproductive ratio, R0, which is typically 5-15 and has been shown experimentally to be in logarithmic phase (data not shown). Inhibition of R0 is calculated for each well, and IC50 value was determined using non-linear 4-parameter curve fitting.

Where [1] appears, read: Human immunodeficiency virus 1, NL43, MT4-GFP cells infected with H9IIIB or NL4-3 virus, 100% normal human serum, inhibition of reproductive ratio R0, read-out: VIKING IP (nM) with 100% NHS.
Where [2] appears, read: Human immunodeficiency virus 1, NL43, MT4-GFP cells infected with H9IIIB or NL4-3 virus, serum free conditions (0% NHS), inhibition of reproductive ratio R0, read-out: VIKING IP (nM) with 0% NHS.
Where [3] appears, read: Human immunodeficiency virus 1, NL43, read-out: VIKING IP (nM) with 0% NHS.

Where two headings read alike, the source gives them in different places.

For `CCOP(=O)(CCN1C(=O)c2c(O)c(=O)c(C(=O)NCc3ccc(F)cc3F)cn2N(C)C12CCOC2)OCC` (centres unmarked) [Compound 40], the IC50 was determined as 92.6 nM under setting [1] and 3.6 nM under setting [2].
On the same counts, the results for `CN1C(=O)c2c(O)c(=O)c(C(=O)NCc3ccc(F)cc3F)cn2N(CCP(=O)(O)O)[C@]12CCOC2` (single isomer, unassigned) [Compound 9] are 961 nM and 23.3 nM.
As to `CC(C)OC(=O)[C@H](C)NP(=O)(CCN1n2cc(C(=O)NCc3ccc(F)cc3F)c(=O)c(O)c2C(=O)N(C)[C@]12CCOC2)Oc1ccccc1` (some centres unmarked) [Compound 16], the IC50 under setting [3] came out at 3.7 nM.
The same measure, in the same setting: the value for `CC(C)OC(=O)[C@H](C)NP(=O)(CCN1C(=O)c2c(O)c(=O)c(C(=O)NCc3ccc(F)cc3F)cn2N(C)C12CCOC2)Oc1ccccc1` (some centres unmarked) [Compound 44] was 13.4 nM.
Regarding `CN1n2cc(C(=O)NCc3ccc(F)cc3F)c(=O)c(O)c2C(=O)N(CCP(=O)(O)O)C12CCOC2` (centres unmarked) [Compound 42], the IC50 under setting [1] was 447 nM and the IC50 under setting [2] was 54.8 nM.
Regarding `CN1n2cc(C(=O)NCc3ccc(F)cc3F)c(=O)c(O)c2C(=O)N(CCP(=O)(O)O)C12CCOC2` (single isomer, unassigned) [Compound 46], the IC50 amounted to 775 nM under setting [1] and 92.1 nM under setting [2].
Consider `CC(C)OC(=O)OCOP(=O)(CCCN1C(=O)c2c(O)c(=O)c(C(=O)NCc3ccc(F)cc3F)cn2N(CCP(=O)(OCOC(=O)OC(C)C)OCOC(=O)OC(C)C)C12CCOC2)OCOC(=O)OC(C)C` (racemic) [Compound 49], for which the IC50 reads like this: under setting [1], 8.8 nM; under setting [2], 0.3 nM.
For the compound `CC(C)OC(=O)OCOP(=O)(CCN1C(=O)c2c(O)c(=O)c(C(=O)NCc3ccc(F)cc3F)cn2N(C)C12CCOC2)OCOC(=O)OC(C)C` (centres unmarked) [Compound 43], the IC50 is, setting by setting: under setting [1], 43.4 nM; under setting [2], 1.2 nM.
In the case of `CCOP(=O)(CCN1C(=O)c2c(O)c(=O)c(C(=O)NCc3ccc(F)cc3F)cn2N(C)C12CCOC2)OCC` (single isomer, unassigned) [Compound 45], the IC50 runs as follows: under setting [1], 118 nM; under setting [2], 2.9 nM.
For `CN1C(=O)c2c(O)c(=O)c(C(=O)NCc3ccc(F)cc3F)cn2N(CCP(=O)(O)O)[C@@]12CCOC2` (single isomer, unassigned) [Compound 10], in that order: 449 nM and 14.4 nM.
On the same counts, the results for `CC(C)OC(=O)OCOP(=O)(CCN1C(=O)c2c(O)c(=O)c(C(=O)NCc3ccc(F)cc3F)cn2N(C)C12CCOC2)OCOC(=O)OC(C)C` (single isomer, unassigned) [Compound 47] are 106 nM and 2.9 nM.
In the case of `CCCOP(=O)(CCN1n2cc(C(=O)NCc3ccc(F)cc3F)c(=O)c(O)c2C(=O)N(C)[C@]12CCOC2)OCC` (single isomer, unassigned) [Compound 6], the IC50 reads like this: under setting [1], 45.9 nM; under setting [2], 2 nM.
On the same counts, the results for `CC(C)OC(=O)OCOP(=O)(CCN1n2cc(C(=O)NCc3ccc(F)cc3F)c(=O)c(O)c2C(=O)N(C)[C@]12CCOC2)OCOC(=O)OC(C)C` [Compound 13] are 1.8 nM and 0.04 nM.
With `CC(C)OC(=O)OCOP(=O)(CCN1n2cc(C(=O)NCc3ccc(F)cc3F)c(=O)c(O)c2C(=O)N(C)[C@@]12CCOC2)OCOC(=O)OC(C)C` [Compound 11], the IC50 is 1.5 nM under setting [1] and 0.05 nM under setting [2].
`CC(C)OC(=O)[C@H](C)NP(=O)(CCN1C(=O)c2c(O)c(=O)c(C(=O)NCc3ccc(F)cc3F)cn2N(C)C12CCOC2)Oc1ccccc1` (single isomer, unassigned) [Compound 48]: the IC50 under setting [3] came to 23.8 nM.
Same read-out and setting: the value for `CC(C)OC(=O)[C@H](C)NP(=O)(CCN1n2cc(C(=O)NCc3ccc(F)cc3F)c(=O)c(O)c2C(=O)N(C)[C@@]12CCOC2)Oc1ccccc1` (some centres unmarked) [Compound 15] was 3.9 nM.
Regarding `CC(C)OC(=O)OCOP(=O)(O)CCN1n2cc(C(=O)NCc3ccc(F)cc3F)c(=O)c(O)c2C(=O)N(C)[C@@]12CCOC2` [Compound 12], the IC50 is, setting by setting: under setting [1], 156 nM; under setting [2], 0.8 nM.
As for `CC(C)OC(=O)OCOP(=O)(O)CCN1n2cc(C(=O)NCc3ccc(F)cc3F)c(=O)c(O)c2C(=O)N(C)[C@]12CCOC2` [Compound 14], the IC50 turned out to be 89 nM under setting [1] and 1.6 nM under setting [2].
